Conditions in all cases: Huh-7, 96 h
The nature of experiment [1]: Inhibition of Hepatitis C virus genotype 2a replicon NS5A transfected in human HuH7 cells assessed as decrease in replication of viral replicon after 4 days by luciferase reporter gene assay. The format is cell-based, Hepatitis C virus subtype 2a.
Experiment [2] in a line: Inhibition of Hepatitis C virus genotype 4a replicon NS5A transfected in human HuH7 cells assessed as decrease in replication of viral replicon after 4 days by luciferase reporter gene assay. The format is cell-based, Hepatitis C virus subtype 4a.
A short description of experiment [3]: Inhibition of Hepatitis C virus genotype 3a replicon NS5A transfected in human HuH7 cells assessed as decrease in replication of viral replicon after 4 days by luciferase reporter gene assay. Type of experiment: cell-based, Hepatitis C virus subtype 3a. Background: A replicon is a self-replicating genome or part of one, used to study replication in cells.
Experiment [4] is described as follows: Inhibition of Hepatitis C virus genotype 1b Con1 replicon NS5A transfected in human HuH7 cells assessed as decrease in replication of viral replicon after 4 days by luciferase reporter gene assay. The format is cell-based, Hepatitis C virus (isolate Con1).
Experiment [5] is described as follows: Inhibition of Hepatitis C virus genotype 1a H77 replicon NS5A transfected in human HuH7 cells assessed as decrease in replication of viral replicon after 4 days by luciferase reporter gene assay. Type of experiment: cell-based, Hepatitis C virus (isolate H77).
Experiment [6] is described as follows: Inhibition of Hepatitis C virus genotype 2b replicon NS5A transfected in human HuH7 cells assessed as decrease in replication of viral replicon after 4 days by luciferase reporter gene assay. The format is cell-based, Hepatitis C virus subtype 2b.
Experiment [7] is described as follows: Inhibition of Hepatitis C virus genotype 6a replicon NS5A transfected in human HuH7 cells assessed as decrease in replication of viral replicon after 4 days by luciferase reporter gene assay. The format is cell-based, Hepatitis C virus subtype 6a.

A value given as a limit tells only on which side of the number the result lay.

Regarding `COC(=O)N[C@H](C(=O)N1CCC[C@H]1c1nc2cc(-c3ccc(-c4cc(OC)c5[nH]c([C@@H]6CCCN6C(=O)[C@@H](NC(=O)OC)C(C)C)nc5c4)cc3)cc(OC)c2[nH]1)C(C)C`, the EC50 (as a rule, the concentration needed to bring the measured effect to its halfway point) is > 100 nM in experiment [1]; 0.162 nM in experiment [2]; 92.4 nM in experiment [3]; 0.095 nM in experiment [4]; 0.628 nM in experiment [5]; 56.8 nM in experiment [6]. Moreover, in experiment [7], the EC50 was > 100 nM.

On to `COC(=O)N[C@H](C(=O)N1CCC[C@H]1c1nc2cc(-c3ccc(-c4cc(F)c5[nH]c([C@@H]6CCCN6C(=O)[C@@H](NC(=O)OC)C(C)C)nc5c4)cc3)cc(F)c2[nH]1)C(C)C`, for which the concentration for a half-maximal effect (EC50) in experiment [1] is 13.8 nM; in experiment [2], 0.04 nM; in experiment [3] it was 6.49 nM; in experiment [4] it was < 0.03 nM; in experiment [5], 0.579 nM; in experiment [6], 0.516 nM.

For the compound `COC(=O)N[C@H](C(=O)N1CCC[C@H]1c1nc2cc(-c3ccc(-c4cc5nc([C@@H]6CCCN6C(=O)[C@@H](NC(=O)OC)C(C)C)[nH]c5cc4C)cc3)c(C)cc2[nH]1)C(C)C`, the EC50 was 9.18 nM in experiment [1]; < 0.03 nM in experiment [2]; 4.45 nM in experiment [3]; 0.008 nM in experiment [4]; 1.47 nM in experiment [5]; 0.148 nM in experiment [6]. The EC50 in experiment [7] stood at 3.24 nM.

As for `COC(=O)N[C@H](C(=O)N1CCC[C@H]1c1nc2cc(-c3ccc(-c4cc(C)c5[nH]c([C@@H]6CCCN6C(=O)[C@@H](NC(=O)OC)C(C)C)nc5c4)cc3)cc(C)c2[nH]1)C(C)C`, the EC50 in experiment [1] was > 100 nM; in experiment [2] it was 0.404 nM; in experiment [3] it was 17.5 nM; in experiment [4] it was 0.031 nM; in experiment [5], 0.98 nM; in experiment [6], 3.93 nM. Further, the EC50 in experiment [7] was found to be 22.9 nM.

In the case of `COC(=O)N[C@H](C(=O)N1CCC[C@H]1c1nc2nc(-c3ccc(-c4ccc5[nH]c([C@@H]6CCCN6C(=O)[C@@H](NC(=O)OC)C(C)C)nc5n4)cc3)ccc2[nH]1)C(C)C`, the EC50 in experiment [1] was > 100 nM; in experiment [2] it was 1.84 nM; in experiment [3], 6.69 nM; in experiment [4], 0.283 nM; in experiment [5], 1.12 nM; in experiment [6], 1.43 nM.

For `COCc1c(-c2ccc(-c3ccc4[nH]c([C@@H]5CCCN5C(=O)[C@@H](NC(=O)OC)C(C)C)nc4c3COC)cc2)ccc2[nH]c([C@@H]3CCCN3C(=O)[C@@H](NC(=O)OC)C(C)C)nc12`, the concentration for a half-maximal effect (EC50) in experiment [1] is > 100 nM; in experiment [2], 1.19 nM; in experiment [3], 15.5 nM; in experiment [4], 0.193 nM; in experiment [5], 1.18 nM; in experiment [6] it was 77.5 nM. The EC50 in experiment [7] is > 100 nM.

In the case of `COC(=O)N[C@H](C(=O)N1CCC[C@H]1c1nc2ccc(-c3ccc(-c4ccc5nc([C@@H]6CCCN6C(=O)[C@@H](NC(=O)OC)C(C)C)[nH]c5c4)cc3)cc2[nH]1)C(C)C`, the EC50 in experiment [1] came out at 75.5 nM; in experiment [2], 0.062 nM; in experiment [3] it was 1.12 nM; in experiment [4], 0.022 nM; in experiment [5], 0.272 nM; in experiment [6], 0.06 nM.

In the case of `COC(=O)N[C@H](C(=O)N1CCC[C@H]1c1nc2cc(-c3ccc(-c4cnc5[nH]c([C@@H]6CCCN6C(=O)[C@@H](NC(=O)OC)C(C)C)nc5c4)cc3)cnc2[nH]1)C(C)C`, the EC50 was > 100 nM in experiment [1]; 1.1 nM in experiment [2]; > 100 nM in experiment [3]; 1.54 nM in experiment [4]; 5.58 nM in experiment [5]; 6.5 nM in experiment [6].

Regarding `COC(=O)N[C@H](C(=O)N1CCC[C@H]1c1nc2cc(-c3ccc(-c4cc5nc([C@@H]6CCCN6C(=O)[C@@H](NC(=O)OC)C(C)C)[nH]c5cc4OC)cc3)c(OC)cc2[nH]1)C(C)C`, the EC50 is > 100 nM in experiment [1]; 0.548 nM in experiment [2]; > 100 nM in experiment [3]; 0.093 nM in experiment [4]; 25.5 nM in experiment [5]; 88.6 nM in experiment [6]. Further, the EC50 in experiment [7] was > 100 nM.

For the compound `COC(=O)N[C@H](C(=O)N1CCC[C@H]1c1nc2c(C)c(-c3ccc(-c4ccc5[nH]c([C@@H]6CCCN6C(=O)[C@@H](NC(=O)OC)C(C)C)nc5c4C)cc3)ccc2[nH]1)C(C)C`, the EC50 in experiment [1] turned out to be 28 nM; in experiment [2], 0.014 nM; in experiment [3], 0.104 nM; in experiment [4] it was 0.014 nM; in experiment [5], 0.038 nM; in experiment [6], 0.32 nM. Also, the concentration giving a half-maximal response (EC50) in experiment [7] is 7.05 nM.

Take `COC(=O)N[C@H](C(=O)N1CCC[C@H]1c1nc2cc(-c3ccc(-c4cc5nc([C@@H]6CCCN6C(=O)[C@@H](NC(=O)OC)C(C)C)[nH]c5cc4F)cc3)c(F)cc2[nH]1)C(C)C`: the EC50 in experiment [1] was 31 nM; in experiment [2] it was 0.008 nM; in experiment [3], 0.444 nM; in experiment [4], < 0.03 nM; in experiment [5], 0.076 nM; in experiment [6] it was < 0.03 nM. In experiment [7], the EC50 amounted to 0.274 nM.

With `COC(=O)N[C@H](C(=O)N1CCC[C@H]1c1nc2cc(-c3ccc(-c4cc5nc([C@@H]6CCCN6C(=O)[C@@H](NC(=O)OC)C(C)C)[nH]c5cc4C(F)(F)F)cc3)c(C(F)(F)F)cc2[nH]1)C(C)C`, the concentration for a half-maximal effect (EC50) was 49.6 nM in experiment [1]; 0.049 nM in experiment [2]; 43.4 nM in experiment [3]; 0.006 nM in experiment [4]; 12 nM in experiment [5]; 4.49 nM in experiment [6]. Further, in experiment [7], the EC50 was found to be 21.5 nM.

Take `COC(=O)N[C@H](C(=O)N1CCC[C@H]1c1nc2c(F)c(-c3ccc(-c4ccc5[nH]c([C@@H]6CCCN6C(=O)[C@@H](NC(=O)OC)C(C)C)nc5c4F)cc3)ccc2[nH]1)C(C)C`: the EC50 in experiment [1] was 40.2 nM; in experiment [2], 0.33 nM; in experiment [3] it was 0.645 nM; in experiment [4] it was 0.013 nM; in experiment [5], 0.129 nM; in experiment [6], 0.222 nM. Besides, the EC50 in experiment [7] is 4.75 nM.

Turning to `COC(=O)N[C@H](C(=O)N1CCC[C@H]1c1nc2cc(-c3ccc(-c4cc(C(F)(F)F)c5[nH]c([C@@H]6CCCN6C(=O)[C@@H](NC(=O)OC)C(C)C)nc5c4)cc3)cc(C(F)(F)F)c2[nH]1)C(C)C`, the EC50 in experiment [1] was > 100 nM; in experiment [2] it was 1.9 nM; in experiment [3], > 100 nM; in experiment [4], 0.107 nM; in experiment [5] it was 23 nM; in experiment [6], > 10 nM. The EC50 in experiment [7] is > 10 nM.

Regarding `COC(=O)N[C@H](C(=O)N1CCC[C@H]1c1nc2c(F)c(-c3ccc(-c4c(F)cc5[nH]c([C@@H]6CCCN6C(=O)[C@@H](NC(=O)OC)C(C)C)nc5c4F)cc3)c(F)cc2[nH]1)C(C)C`, the EC50 in experiment [1] stood at 43.1 nM; in experiment [2], 0.077 nM; in experiment [3] it was 1.43 nM; in experiment [4], 0.016 nM; in experiment [5] it was 0.507 nM; in experiment [6], 0.218 nM. Besides, the EC50 in experiment [7] was 17.3 nM.

Regarding `COC(=O)N[C@H](C(=O)N1CCC[C@H]1c1cc2nc(-c3ccc(-c4ccc5[nH]c([C@@H]6CCCN6C(=O)[C@@H](NC(=O)OC)C(C)C)cc5n4)cc3)ccc2[nH]1)C(C)C`, the EC50 in experiment [1] is > 100 nM; in experiment [2], > 100 nM; in experiment [3] it was > 100 nM; in experiment [4], 7.44 nM; in experiment [5], > 100 nM; in experiment [6] it was > 100 nM.
